Results from patent US10246456B2, “IRAK4 inhibiting agents” (BIOGEN MA INC., priority 2014, dated 2019).
pIC50: −log10 of the molar value.

target: IRAK4 (Homo sapiens (Human), UniProt Q9NWZ3); test: IRAK-4 AlphaScreen biochemical kinase assay; details: 1 nM IRAK4, 1 mM ATP, 3.5 h at RT
Outline: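 AlphaScreen read-out: streptavidin beads bind the biotinylated peptide and protein A beads bind the anti-phosphothreonine antibody, so energy transfer reports phosphorylation of the peptide. The kinase is human IRAK-4.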

IRAK4, sequence (Q9NWZ3 whole entry, species assumed): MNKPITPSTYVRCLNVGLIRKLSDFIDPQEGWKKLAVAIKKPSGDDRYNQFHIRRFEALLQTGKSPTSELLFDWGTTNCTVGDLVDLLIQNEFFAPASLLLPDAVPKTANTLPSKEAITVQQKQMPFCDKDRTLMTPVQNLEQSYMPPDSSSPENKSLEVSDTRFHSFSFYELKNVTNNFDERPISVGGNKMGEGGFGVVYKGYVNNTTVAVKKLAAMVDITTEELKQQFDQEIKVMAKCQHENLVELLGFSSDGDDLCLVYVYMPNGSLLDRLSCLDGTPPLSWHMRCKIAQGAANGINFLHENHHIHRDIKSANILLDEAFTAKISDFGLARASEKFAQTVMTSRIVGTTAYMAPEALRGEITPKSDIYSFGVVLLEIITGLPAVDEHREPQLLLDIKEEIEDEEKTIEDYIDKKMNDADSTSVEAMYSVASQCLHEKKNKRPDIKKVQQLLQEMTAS

pIC50, > 7.00:
COCCOc1cc(-c2cccc([C@@H](N)CC(C)(F)F)n2)cc2c1cnn2-c1cccc(CO)n1 [Example 455, (S)-(6-(6-(6-(1-amino-3,3-difluorobutyl)pyridin-2-yl)-4-(2-methoxyethoxy)-1H-indazol-1-yl)pyridin-2-yl)methanol]
C[C@H](N)c1cccc(-c2cc(OCCCO)c3cnn(-c4cccc(CO)n4)c3c2)n1 [Example 459, (S)-3-((6-(6-(1-aminoethyl)pyridin-2-yl)-1-(6-(hydroxymethyl)pyridin-2-yl)-1H-indazol-4-yl)oxy)propan-1-ol]
CCC[C@H](N)c1cccc(-c2cc(OCCCO)c3cnn(-c4cccc(CO)n4)c3c2)n1 [Example 460, (S)-3-((6-(6-(1-aminobutyl)pyridin-2-yl)-1-(6-(hydroxymethyl)pyridin-2-yl)-1H-indazol-4-yl)oxy)propan-1-ol]
CC[C@H](N)c1cccc(-c2cc(OCCCO)c3cnn(-c4cccc(CO)n4)c3c2)n1 [Example 461, (S)-3-((6-(6-(1-aminopropyl)pyridin-2-yl)-1-(6-(hydroxymethyl)pyridin-2-yl)-1H-indazol-4-yl)oxy)propan-1-ol]
COCCOc1cc(-c2cccc(C3(N)CCOC3)n2)cc2c1cnn2-c1cccc(CO)n1 (stereo not drawn) [Example 466, (6-(6-(6-(3-aminotetrahydrofuran-3-yl)pyridin-2-yl)-4-(2-methoxyethoxy)-1H-indazol-1-yl)pyridin-2-yl)methanol]
COCCOc1cc(-c2cccc(C3(N)CCC3)n2)cc2c1cnn2-c1cccc(CO)n1 [Example 467, (6-(6-(6-(1-aminocyclobutyl)pyridin-2-yl)-4-(2-methoxyethoxy)-1H-indazol-1-yl)pyridin-2-yl)methanol]
COCCOc1cc(-c2cccc(C3(N)CCC3)n2)cc2c1cnn2-c1cncc(CO)n1 [Example 468, (6-(6-(6-(1-aminocyclobutyl)pyridin-2-yl)-4-(2-methoxyethoxy)-1H-indazol-1-yl)pyrazin-2-yl)methanol]
COCCOc1cc(-c2cccc(C3(N)CCCC3)n2)cc2c1cnn2-c1cccc(CO)n1 [Example 469, (6-(6-(6-(1-aminocyclopentyl)pyridin-2-yl)-4-(2-methoxyethoxy)-1H-indazol-1-yl)pyridin-2-yl)methanol]
CCC[C@H](N)c1cccc(-c2cc(OCC(C)(C)O)c3cnn(-c4cccc(CO)n4)c3c2)n1 [Example 471, (S)-1-((6-(6-(1-aminobutyl)pyridin-2-yl)-1-(6-(hydroxymethyl)pyridin-2-yl)-1H-indazol-4-yl)oxy)-2-methylpropan-2-ol]
CCC[C@H](N)c1cccc(-c2cc(C3CCCO3)c3cnn(-c4cccc(CO)n4)c3c2)n1 (stereo partly drawn) [Example 477, (6-(6-(6-((S)-1-aminobutyl)pyridin-2-yl)-4-(tetrahydrofuran-2-yl)-1H-indazol-1-yl)pyridin-2-yl)methanol]
CCC[C@H](N)c1cccc(-c2cc([C@H]3CC[C@@H](C)O3)c3cnn(-c4cccc(CO)n4)c3c2)n1 [Example 478, (6-(6-(6-((S)-1-aminobutyl)pyridin-2-yl)-4-((2R,5R)-5-methyltetrahydrofuran-2-yl)-1H-indazol-1-yl)pyridin-2-yl)methanol]
CCC[C@H](N)c1cccc(-c2cc([C@@H]3CC[C@@H](C)O3)c3cnn(-c4cccc(CO)n4)c3c2)n1 [Example 479, (6-(6-(6-((S)-1-aminobutyl)pyridin-2-yl)-4-((2S,5R)-5-methyltetrahydrofuran-2-yl)-1H-indazol-1-yl)pyridin-2-yl)methanol]
CCC[C@H](N)c1cccc(-c2cc(OCCOC)c3cnn(-c4cncc(CO)n4)c3c2)n1 [Example 480, (S)-(6-(6-(6-(1-aminobutyl)pyridin-2-yl)-4-(2-methoxyethoxy)-1H-indazol-1-yl)pyrazin-2-yl)methanol]
COCCOc1cc(-c2cccc([C@H](C)N)n2)cc2c1cnn2-c1cncc(CO)n1 [Example 481, (S)-(6-(6-(6-(1-aminoethyl)pyridin-2-yl)-4-(2-methoxyethoxy)-1H-indazol-1-yl)pyrazin-2-yl)methanol]
CC[C@H](N)c1cccc(-c2cc(OCCOC)c3cnn(-c4cncc(CO)n4)c3c2)n1 [Example 482, (S)-(6-(6-(6-(1-aminopropyl)pyridin-2-yl)-4-(2-methoxyethoxy)-1H-indazol-1-yl)pyrazin-2-yl)methanol]
COCCOc1cc(-c2cccc([C@@H](N)CCCO)n2)cc2c1cnn2-c1cccc(CO)n1 [Example 484, (S)-4-amino-4-(6-(1-(6-(hydroxymethyl)pyridin-2-yl)-4-(2-methoxyethoxy)-1H-indazol-6-yl)pyridin-2-yl)butan-1-ol]
CCC[C@H](N)c1cccc(-c2cc(C(C)OC)c3cnn(-c4cccc(CO)n4)c3c2)n1 (stereo partly drawn) [Example 569, (6-(6-(6-((S)-1-aminobutyl)pyridin-2-yl)-4-(1-methoxyethyl)-1H-indazol-1-yl)pyridin-2-yl)methanol]
CCC[C@H](N)c1cccc(-c2cc(Cl)c3cnn(-c4nccc(C(F)F)n4)c3c2)n1 [Example 570, (S)-1-(6-(4-chloro-1-(4-(difluoromethyl)pyrimidin-2-yl)-1H-indazol-6-yl)pyridin-2-yl)butan-1-amine]
CCC[C@H](N)c1cccc(-c2cc(OC)c3cnn(-c4nccc(C(F)F)n4)c3c2)n1 [Example 572, (S)-1-(6-(1-(4-(difluoromethyl)pyrimidin-2-yl)-4-methoxy-1H-indazol-6-yl)pyridin-2-yl)butan-1-amine]

pIC50, 6.00 to 7.00:
COCCOc1cc(-c2cccc(C3(N)COC3)n2)cc2c1cnn2-c1cccc(CO)n1 [Example 465, (6-(6-(6-(3-aminooxetan-3-yl)pyridin-2-yl)-4-(2-methoxyethoxy)-1H-indazol-1-yl)pyridin-2-yl)methanol]
CCC[C@H](N)c1cccc(-c2cc(OCCS(C)(=O)=O)c3cnn(-c4cccc(CO)n4)c3c2)n1 [Example 470, (S)-(6-(6-(6-(1-aminobutyl)pyridin-2-yl)-4-(2-(methylsulfonyl)ethoxy)-1H-indazol-1-yl)pyridin-2-yl)methanol]
Cc1cccc(-n2ncc3ccc(-c4cccc(C(N)CC(F)(F)F)n4)cc32)n1 (stereo not drawn) [Example 551, 3,3,3-trifluoro-1-(6-(1-(6-methylpyridin-2-yl)-1H-indazol-6-yl)pyridin-2-yl)propan-1-amine]
Cc1cccc(-n2ncc3c(-c4nnc(C)o4)cc(-c4cccc(C(C)N)n4)cc32)n1 (stereo not drawn) [Example 557, 1-(6-(4-(5-methyl-1,3,4-oxadiazol-2-yl)-1-(6-methylpyridin-2-yl)-1H-indazol-6-yl)pyridin-2-yl)ethanamine]
Cc1cncc(-n2ncc3ccc(-c4cccc(C(C)N)n4)cc32)n1 (stereo not drawn) [Example 559, 1-(6-(1-(6-methylpyrazin-2-yl)-1H-indazol-6-yl)pyridin-2-yl)ethanamine]
NC(=O)C(N)c1cccc(-c2ccc3cnn(-c4cccc(CO)n4)c3c2)n1 (stereo not drawn) [Example 561, 2-amino-2-(6-(1-(6-(hydroxymethyl)pyridin-2-yl)-1H-indazol-6-yl)pyridin-2-yl)acetamide]
CC(N)c1cccc(-c2ccc3cnn(-c4cccc(CO)n4)c3c2)c1 (stereo not drawn) [Example 563, (6-(6-(3-(1-aminoethyl)phenyl)-1H-indazol-1-yl)pyridin-2-yl)methanol]
CC(N)c1ccc(F)c(-c2ccc3cnn(-c4cccc(CO)n4)c3c2)n1 (stereo not drawn) [Example 564, (6-(6-(6-(1-aminoethyl)-3-fluoropyridin-2-yl)-1H-indazol-1-yl)pyridin-2-yl)methanol]
C[C@H](N)c1cccc(-c2ccc3cnn(-c4nc(CO)ccc4F)c3c2)n1 [Example 565, (S)-(6-(6-(6-(1-aminoethyl)pyridin-2-yl)-1H-indazol-1-yl)-5-fluoropyridin-2-yl)methanol]
CCC[C@@H](c1cccc(-c2ccc3cnn(-c4cccc(CO)n4)c3c2)n1)N(C)C [Example 566, (S)-(6-(6-(6-(1-(dimethylamino)butyl)pyridin-2-yl)-1H-indazol-1-yl)pyridin-2-yl)methanol]
CNC(=O)C(N)c1cccc(-c2ccc3cnn(-c4cccc(CO)n4)c3c2)n1 (stereo not drawn) [Example 567, 2-amino-2-(6-(1-(6-(hydroxymethyl)pyridin-2-yl)-1H-indazol-6-yl)pyridin-2-yl)-N-methylacetamide]
OCc1cccc(-n2ncc3ccc(-c4cccc(C5CCCN5)n4)cc32)n1 (stereo not drawn) [Example 571, (6-(6-(6-(pyrrolidin-2-yl)pyridin-2-yl)-1H-indazol-1-yl)pyridin-2-yl)methanol]

pIC50, 5.00 to 6.00:
CCC[C@H](N)c1cccc(-c2cc(C#CC(C)(C)O)c3cnn(-c4cccc(CO)n4)c3c2)n1 [Example 462, (S)-4-(6-(6-(1-aminobutyl)pyridin-2-yl)-1-(6-(hydroxymethyl)pyridin-2-yl)-1H-indazol-4-yl)-2-methylbut-3-yn-2-ol]
C[C@H](N)c1cccc(-c2ccc3cnn(-c4cccc(C(=O)O)n4)c3c2)n1 [Example 472, 6-{6-[6-((S)-1-Amino-ethyl)-pyridin-2-yl]-indazol-1-yl}-pyridine-2-carboxylic acid]
N#CC(N)c1cccc(-c2ccc3cnn(-c4cccc(CO)n4)c3c2)n1 (stereo not drawn) [Example 560, 2-amino-2-(6-(1-(6-(hydroxymethyl)pyridin-2-yl)-1H-indazol-6-yl)pyridin-2-yl)acetonitrile]
CC(N)c1cccc(-c2ccc3cnn(-c4ccnc(C#N)n4)c3c2)n1 (stereo not drawn) [Example 562, 4-(6-(6-(1-aminoethyl)pyridin-2-yl)-1H-indazol-1-yl)pyrimidine-2-carbonitrile]
C[S+]([O-])CC(N)c1cccc(-c2ccc3cnn(-c4cccc(CO)n4)c3c2)n1 (stereo not drawn) [Example 568, (6-(6-(6-(1-amino-2-(methylsulfinyl)ethyl)pyridin-2-yl)-1H-indazol-1-yl)pyridin-2-yl)methanol]
